Where a SMILES comes first, the peptide text is derived from it. Bridges are numbered along the chain shown (N, C = ends). [ ]: non-standard residue; d: D form. 2Abz = Nc1ccccc1C(=O)O; Dap = NC[C@H](N)C(=O)O
Experiments:
[1] = Metabolism by UGTs in mouse liver microsomes (UDPGA); assay type: in vitro ADME; settings: 3.07 μM, 0.5 mg/mL microsomes, alamethicin, 5 mM UDPGA, 37 °C, 60 min
Method: Next, we examined the level of glucuronidation of CycloAnt in mouse liver microsomes using a method described elsewhere. CycloAnt at a final concentration of 3.07 μM was premixed with 0.5 mg/mL liver microsomes and a channel-forming peptide antibiotic alamethicin at 0 °C. After 15 min, the glucuronidation was initiated by adding the UDP-glucuronosyl transferases (UGTs) substrate uridine-5’-diphospho-α-D-glucuronic acid (UDPGA) to a final concentration of 5 mM and the mixture was incubated at 37 °C [19]. At 0, 5, 15, 30, and 60 min, the incubation mixture was withdrawn and processed. The supernatant was collected and analyzed by LC-MS/MS.
Metabolism by UDP-glucuronosyl transferases (UGTs) in liver microsomes. CycloAnt dissolved in pH 7.2 PBS was diluted to 8 μM. Six hundred microliters of diluted CycloAnt, 800 μL of 0.975 mg/mL mouse liver microsomes, and 14 μL of 0.5 mM alamethicin containing 10 mM MgCl2, were mixed and preincubated on ice for 15 min. The reaction was then initiated by adding 74 μL of 100 mM uridine-5’-diphospho-α-D-glucuronic acid (UDPGA) and incubated at 37 °C for 0, 5, 15, 30, and 60 min. […] The dried sample was reconstituted in 100 μL of 20% acetonitrile and stored at −20 °C before analyzed by LC-MS/MS on the next day. […]

[2] = LC-MS/MS search for metabolites in mouse plasma after i.p. administration; assay type: in vivo; settings: mouse plasma 15 min after 10 mg/kg i.p.; from m/z intensity
Method: To verify if CycloAnt could be metabolized in vivo, we looked for the possible metabolites (Scheme S1) in a blood sample collected from mice 15 min after i.p. administration of CycloAnt at a dose of 10 mg/kg. The proteins in the mouse plasma were precipitated by ice-cold acetonitrile containing internal standard. Following centrifugation, the supernatant was collected, and analyzed by LC-MS/MS. A total ion current (TIC) scan was conducted for the mass-to-charge ratio (m/z) in the range of 300–1500 for all ions, followed by the targeted narrow range scans. The scans in the range of 650–690 and 325–346 are aimed at detecting the potential [M + 1]^+ and [M + 2]^2+ ions from the Phase I metabolites, the enzymatically cleaved peptides, and intact CycloAnt, respectively (Figure S1 and Figure 2); and the scans in the range of 843–852 and 422–428 are for detecting the potential [M + 1]^+ and [M + 2]^2+ ions from the Phase II glucuronidation, respectively (Figure S3). The [M + 1]^+ and [M + 2]^2+ ions were then extracted from the narrow range scans for the potential enzymatically cleaved products (Figure S1), the Phase I metabolites (Figure S2), and the Phase II UGT metabolites (Figure S3). The relative abundance of the tallest peak was assigned as 100. […]

rat MOR = biological target: T1, rat MOR (Rattus norvegicus, UniProt P33535); experiment: Opioid receptor radioligand binding assay ([3H]diprenorphine), MOR; settings: CHO cell membranes, read-out: binding affinity (Ki) at MOR
T1 construct: expressed in transfected cells
Method: CycloAnt is a lariat peptide that acts in vivo as a bifunctional MOR agonist and DOR antagonist, which was confirmed in our previous study using opioid receptor individually knock-out (OP KO) mice. In the current study, the binding affinities of CycloAnt to the three opioid receptors are determined using cell-based radioligand opioid receptor binding assays. […] At the KOR, CycloAnt at 1 μM inhibits 6% and at 10 μM inhibits 26% of [^3H]diprenorphine binding.
Opioid receptor radioligand binding assay. Membranes of CHO cells stably expressing the rat MOR, mouse DOR, or human KOR were used in the experiments. [^3H]diprenorphine (PerkinElmer, Waltham, MA, at the time of experiment calculated to have specific activity 35 Ci/mmol) was used as the radioligand for the MOR, DOR, and KOR. Competition inhibition of [^3H]diprenorphine (0.3–0.4 nM) binding to the MOR or DOR was conducted in 50 mM Tris-HCl buffer (pH 7.4) with an adequate number of cell membranes for each receptor and […] of CycloAnt. […] Binding reactions were terminated by rapid filtration under vacuum over GF/B filters presoaked in 0.1% polyethyleneimine, and the bound radioactivity was counted by liquid scintillation counting. […] Binding data were analyzed using GraphPad Prism software (version 10.2.3) and IC50 values (the concentration necessary to inhibit 50 percent of radioligand binding) and Ki values were calculated. […]

T1 sequence (P33535 whole entry): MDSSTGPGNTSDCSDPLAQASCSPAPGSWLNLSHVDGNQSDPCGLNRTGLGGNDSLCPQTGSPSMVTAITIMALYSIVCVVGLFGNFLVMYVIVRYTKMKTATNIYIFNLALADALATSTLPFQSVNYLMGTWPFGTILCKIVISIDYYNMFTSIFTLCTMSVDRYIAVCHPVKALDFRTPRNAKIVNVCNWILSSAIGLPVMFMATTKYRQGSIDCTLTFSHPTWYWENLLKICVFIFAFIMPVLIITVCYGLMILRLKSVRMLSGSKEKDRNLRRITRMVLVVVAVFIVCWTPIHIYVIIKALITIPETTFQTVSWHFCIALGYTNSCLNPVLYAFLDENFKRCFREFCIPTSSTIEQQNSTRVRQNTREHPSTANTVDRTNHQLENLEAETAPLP

C[C@@H](O)[C@@H]1NC(=O)[C@H](CNC(=O)c2ccccc2N)NC(=O)[C@H](NC(=O)[C@@H](N)Cc2ccc(O)cc2)CCCCNC(=O)CNC1=O [CycloAnt] (H-Y[dK][Dap](2Abz)TG; lactam 2-C)
stability against glucuronidation in mouse liver microsomes (UGTs) [1]: stable against glucuronidation | concentration of any metabolites relative to CycloAnt in plasma (fold lower) [2]: 10^3- to-10^4 fold | Ki (rat MOR): 2.25 ± 0.44 nM

Source: article PMC11546339, “Conformational Plasticity Enhances the Brain Penetration of a Metabolically Stable, Dual-Functional Opioid-Peptide CycloAnt” (International Journal of Molecular Sciences, 2024)
